According to US11260050B2, “Combination of cotinine plus antioxidant for treatment-resistant depression and correction of astrocytes functional deficit induced by depression and other neuropathological” (UNIVERSIDAD SAN SEBASTIAN, priority 2017, dated 2022):

What was measured:
restrained mice = assay: Novel object recognition after chronic restraint stress (Example 2); format: in vivo, C57BL/6 male mice; details: stressed mice, IN cotinine vs vehicle
Procedure: Mice between 2-3 months of age after one week of acclimatization were randomly divided into two groups. Stressed mice were subjected to restraint stress. Control (non-restrained) mice were allowed to move freely during this period. After the stress exposure period, mice were divided into three experimental groups: 1) Non-restrained mice treated with vehicle (PBS, pH 7.4) serving as unstressed controls (n=8); 2) Restrained mice (RS) treated with vehicle (n=8); 3), RS mice treated with 24 μl of a cotinine solution (10 mg/ml in PBS, pH 7.4) via intranasal route of administration (n=6). Treatments were administered daily until euthanasia. After two weeks of treatments mice were behaviorally tested and euthanized (FIG. 10)
Intranasal delivery was performed as previously described (Hanson and Frey, 2007). Mice at 2-3 months of age were hand-restrained, positioned in a supine position, and administered two 12 μl drops of cotinine solution (10 mg/ml in PBS), or PBS alone, into both nares. Mice were given an extra 12 μl treatment drop if the mouse expelled out the solution. Mice were kept in the supine posture for 5 seconds after delivery to facilitate the delivery. […]
The NOR test starts with a habituation step that consists in putting each mouse to freely explore an open and empty testing arena (40 cm×40 cm×35 cm) for 10 min. […] The time exploring the objects was recorded during 5 min in both steps. […]

calcineurin A = assay: Western blot of calcineurin A in the hippocampus (Example 4); format: in vivo, Mice C57BL/6; details: conditioned mice after extinction; vs PBS-treated conditioned mice
Procedure: Three-month-old mice (n=5-6/condition) were weighed and assigned to treatment groups. Mice were treated with vehicle or drugs, starting two h after fear conditioning and daily after behavioral testing until euthanasia. Mice received daily treatments with 1. PBS (phosphate buffer saline, pH 7.4) via intranasal; 2. Cotinine (10 mg/ml) dissolved in PBS via intranasal (IN Cot, 24 μl); 3. Krill oil dissolved in PBS, via intranasal (48 mg/ml, 24 μl); 4. Cotinine (10 mg/ml) plus krill oil dissolved in PBS, via intranasal (48 mg/ml, 24 μl); 5. […] The dose of cotinine was ten times lower than the dose of oral cotinine promoting fear extinction in C57BL/6 mice.
After the behavioral testing, mice from all treatment groups were euthanized via cervical dislocation by a well-trained investigator. Brain regions of interest were dissected and stored at −20° C. for protein analyses. Each brain was divided into two parts, left and right hemispheres. […] The protein concentration of the supernatants was measured using the Bio-Rad protein assay (Bio-Rad, Hercules, Calif., USA). […] Membranes were washed with TBST and incubated with HRP-conjugated secondary antibodies (Bio-Rad) for 1 h at RT, washed with TBST and TBS, and images were acquired using My ECL imaging system and analyzed using the NIH Image J software.

Which results are given for CN1C(=O)CC[C@H]1c1cccnc1 [Cotinine, (5S)-1-methyl-5-(3-pyridyl) pyrrolidin-2-one]?
exploration index for the new object (NOR) (restrained mice): increase in the exploration index when compared to vehicle-treated stressed mice but the difference did not reach statistical significance; number of entries to the novel object area (NOR) (restrained mice; p<0.05): significantly higher number of entries to the novel object area; calcineurin A levels in the hippocampus (calcineurin A): significantly different from PBS-treated conditioned mice
